{
  "source": "paper PMC5040251",
  "about": "“The Structure of Treponema pallidum Tp0751 (Pallilysin) Reveals a Non-canonical Lipocalin Fold That Mediates Adhesion to Extracellular Matrix Components and Interactions with Host Cells” (PLoS Pathogens, 2016)",
  "key": {"fibronectin": {"tested_on": "fibronectin", "experiment": "Initial (single point) binding screen of Tp0751 peptide library to immobilized fibronectin", "parameters": "species or system human", "settings": "absorbance 600 nm, three wells, two independent experiments, Student's two-tailed t-test against non-binding peptides", "procedure": "Fig 3 Tp0751 lipocalin derived peptides directly bind host proteins. (A) Thirteen overlapping Tp0751 synthetic 24-mer peptides were evaluated for binding to immobilized fibrinogen, fibronectin, collagen type I, and collagen type IV. Average absorbance readings (600 nm) from three wells are presented with bars indicating standard error and the results are representative of two independent experiments. […] Average absorbance readings (600 nm) from three wells are presented with bars indicating standard error and the results are representative of two independent experiments. […] The strand colored in cyan reflects the overlap of p10 and p11. Color coded sequences of peptides p4, p6, p10, p10scr1, and p10scr2 are shown. Arginine residues in the p10 peptides are indicated by underlining.\nPlasminogen-depleted human fibrinogen (Calbiochem) was purchased from VWR International. Laminin isolated from Engelbreth-Holm-Swarm murine sarcoma basement membrane and fibronectin isolated from human plasma were purchased from Sigma-Aldrich Canada Ltd. (Oakville, ON). Human collagen types I and IV (Rockland Immunochemicals, Inc.) were purchased from VWR International.\nTo test for binding of synthetic Tp0751 peptides p1-p13, p1scr, p6scr, p10scr1, and p10scr2 to the host proteins fibrinogen, fibronectin, laminin, collagen type I, and collagen type IV, initial binding assays were performed as described previously. For dose-dependent binding assays, recombinant proteins were serially diluted 1:2 from either 10 μM to 0.156 μm (Tp0751_78A used for crystallization and Tp0751_78 WT) or 40 μm to 0.625 μm (peptides p4, p6, p10, p11, p10scr1, and p10scr2). Average absorbance readings (600 nm) from three wells are presented with bars indicating standard error and the results are representative of two independent experiments. Plates were read at 600 nm with a BioTek enzyme-linked immunosorbent assay plate reader (Fisher Scientific, Ottawa, ON). All statistical analyses were performed using the Student’s two-tailed t-test. Non-linear regression curves were fitted and apparent dissociation constants (K d) were calculated using GraphPad Prism data analysis software (San Diego, CA)."}, "HUVEC monolayers": {"tested_on": "HUVEC monolayers", "experiment": "Peptide competitive inhibition assay: stationary adhesion of Tp0751-expressing B. burgdorferi (Bb-Tp0751) to HUVEC monolayers", "format": "cell-based, human", "settings": "for Effect on adhesion of Bb-Tp0751 to HUVEC monolayers: HUVECs on matrigel pre-incubated with 0.1 μg peptide per well for 3 h at 37°C, peptide removed, bacteria 12 h at 36°C, GFP bacteria counted in ten FOV, 400x, compared with scrambled peptide", "procedure": "Fig 5 Tp0751 peptide 10 inhibits adhesion of Tp0751-expressing B. burgdorferi to HUVEC monolayers. (A) Schematic showing the experimental design of the competitive inhibition assay. Confluent HUVEC monolayers seeded on artificial basement membrane were preincubated with synthetic Tp0751 peptides (p4, p6, p10, p11, p4scr, p6scr, and p10scr1) to allow for peptide-endothelial cell interactions. HUVECs were then co-incubated with parent (negative control) or Tp0751-expressing B. burgdorferi strains to assess the competitive inhibition capacity of the synthetic Tp0751 peptides. After washing to remove non-adherent bacteria, B. burgdorferi adhesion to HUVECs was quantified using fluorescence microscopy to count the number of adherent bacteria per field of view (FOV) at 400x magnification. (B) Bar graph illustrating the number of adherent B. burgdorferi per FOV. Mean counts ± SEM from ten FOV for each biological replicate are presented with standard error bars. For statistical analyses, attachment by strain Bb-Tp0751 to HUVEC monolayers preincubated with peptides p4, p6, and p10 was compared to the attachment of strain Bb-Tp0751 in the presence of corresponding scrambled peptides, using the Student’s two-tailed t-test. […] The parent and Bb-Tp0751 strains are indicated by clear white bars and striped colored bars, respectively. […] Mean counts ± SEM from ten FOV for each biological replicate are presented with standard error bars. Statistical analysis, was performed using the Student’s two-tailed t-test.\nHuman umbilical vein endothelial cells (HUVECs) pooled from multiple donors and purchased from Lonza (Allendale, NJ) were cultured in endothelial growth medium-2 (EGM-2) (Lonza) at 37°C in an atmosphere of 5% CO2, as per manufacturer’s instructions. B. burgdorferi strains were cultivated at 36°C in an atmosphere of 1.5% CO2 in BSK-II medium prepared in-house with appropriate antibiotics (100 μg/mL gentamycin, 200 μg/mL kanamycin).\nStationary adhesion assays were adapted from Szczepanski and colleagues and Cameron and colleagues. HUVECs (passage 2–3) were seeded in 4-well chamber slides (Nalge Nunc International, Rochester, NY), coated with 500 μg/mL phenol red-free matrigel (Corning, Tewksbury, MA) and grown 20 h at 37°C in 5% CO2 to form confluent monolayers. Synthetic Tp0751 peptides (p4, p6, p10, p11, […], p4scr, p6scr, and p10scr1) were diluted to 500 μg/ml in HEPES buffered saline solution (Lonza) and HUVECs were pre-incubated with 0.1 μg of Tp0751 peptide per well for 3 h at 37°C in 5% CO2. Peptide solutions were removed from HUVECs prior to the addition of bacteria. Borrelia burgdorferi strains were cultured in biological triplicate, and two days prior to the experiment, B. burgdorferi cultures were passaged to 6x10^5 cells/ml and grown for 48 h to reach a concentration of 2x10^7 cells/ml. Borrelia burgdorferi cultures were then centrifuged and resuspended in a 3:1 mixture of BSK-II:EGM-2 and 1.4x10^7 cells of each biological replicate were added to HUVECs in duplicate wells. […] Quantitation of B. burgdorferi adhesion to HUVECs was performed by counting GFP-expressing bacteria in ten fields of view (FOV) from duplicate wells for each biological replicate under 400X magnification on a Nikon 80i fluorescence microscope (Meridian Instrument Company, Inc., Kent, WA) fitted with a monochrome digital camera, a dark-field condenser, and fluorescein filter (Excelitas Technologies, Mississauga, ON). […]"}},
  "note": "Ends that are not written are not given here.",
  "data": [
    {"sequence": "HHHHHHGGAAQTHTQPPVQTAMRIALWNRA [p4]", "values": [
      {"measurement": "Binding to fibronectin in initial binding screen", "setting": "fibronectin", "value": "statistically significant binding"},
      {"measurement": "Effect on adhesion of Bb-Tp0751 to HUVEC monolayers", "setting": "HUVEC monolayers", "value": "did not alter adhesion"}
    ]},
    {"sequence": "HHHHHHQGALQHLLAGLWIQTEISPNSGDI [p6]", "values": [
      {"measurement": "Binding to fibronectin in initial binding screen", "setting": "fibronectin", "value": "statistically significant binding"},
      {"measurement": "Effect on adhesion of Bb-Tp0751 to HUVEC monolayers", "setting": "HUVEC monolayers", "value": "did not alter adhesion"}
    ]},
    {"sequence": "HHHHHHRKTVSFLTRNTAISSIRRRLEVTF [p10]", "values": [
      {"measurement": "Binding to fibronectin in initial binding screen", "setting": "fibronectin", "value": "significant binding"},
      {"measurement": "Effect on adhesion of Bb-Tp0751 to HUVEC monolayers", "setting": "HUVEC monolayers", "value": "significantly reduced binding"},
      {"measurement": "Peptide concentration giving statistically significant lower binding of Bb-Tp0751 to HUVEC monolayers compared with p8", "setting": "HUVEC monolayers; preincubation with 0-545 nM peptide, Student's two-tailed t-test, p≤0.005", "value": "≥ 5.45", "unit": "nM"}
    ]},
    {"sequence": "HHHHHHSIRRRLEVTFESHEVIHVRAVEDV [p11]", "values": [
      {"measurement": "Binding to fibronectin in initial binding screen", "setting": "fibronectin", "value": "statistically significant binding"},
      {"measurement": "Effect on adhesion of Bb-Tp0751 to HUVEC monolayers", "setting": "HUVEC monolayers", "value": "did not alter adhesion"}
    ]}
  ]
}
